Source: ChEMBL document CHEMBL5584238, “Psammaplin A analogues with modified disulfide bond targeting histone deacetylases: Synthesis and biological evaluation” (Eur J Med Chem, 2024)
The source made the active and inactive calls. The calls are words filed in the database; no cut-off is given here.

How the values were obtained:
HCT-116 [1] = test: Induction of apoptosis in human HCT-116 cells assessed as necrotic cells at 0.4 uM incubated for 24 hrs by Annexin V-FITC/PI staining based flow cytometry analysis ( Rvb = 0.24%); type: functional
HCT-116 [2] = test: Induction of apoptosis in human HCT-116 cells assessed as necrotic cells at 0.2 uM incubated for 24 hrs by Annexin V-FITC/PI staining based flow cytometry analysis ( Rvb = 0.24%); type: functional
Histone deacetylase 1 = Histone deacetylase 1 (Homo sapiens, UniProt Q13547); test: Inhibition of recombinant human HDAC1 using Boc-Lys(Ac)-AMC as substrate preincubated for 1 hr followed by substrate addition and measured after 2 hrs by microplate reader assay
Chain of Histone deacetylase 1 (Q13547 whole entry): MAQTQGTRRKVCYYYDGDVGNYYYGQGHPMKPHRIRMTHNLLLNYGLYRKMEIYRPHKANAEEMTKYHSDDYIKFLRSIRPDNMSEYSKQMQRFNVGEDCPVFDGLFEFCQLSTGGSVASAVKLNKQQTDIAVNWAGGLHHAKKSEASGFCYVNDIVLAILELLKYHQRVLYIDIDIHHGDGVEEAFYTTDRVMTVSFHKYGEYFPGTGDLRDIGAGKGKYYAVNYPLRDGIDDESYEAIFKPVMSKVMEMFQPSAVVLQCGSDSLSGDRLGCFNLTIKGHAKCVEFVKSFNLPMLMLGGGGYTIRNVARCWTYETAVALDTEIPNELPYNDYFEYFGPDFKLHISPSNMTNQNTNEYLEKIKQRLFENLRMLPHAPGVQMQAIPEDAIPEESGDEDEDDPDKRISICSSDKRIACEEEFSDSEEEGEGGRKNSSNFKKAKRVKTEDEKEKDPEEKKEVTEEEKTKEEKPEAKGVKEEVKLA

HCT-116 [3] = test: Induction of apoptosis in human HCT-116 cells assessed as viable cells at 0.2 uM incubated for 24 hrs by Annexin V-FITC/PI staining based flow cytometry analysis ( Rvb = 92.2%); type: functional; details: read-out: Activity
[4] = target: T1, Protein deacetylase HDAC6 (Mus musculus) (UniProt Q9Z2V5); test: In vivo inhibition of HDAC6 in BALB/c nude mouse assessed as upregulation of tumor acetylated alpha-tubulin level at 5 mg/kg, ip administered every 2 days for 26 days by Western blotting analysis; type: functional, organism-based; details: time 26.0 day
T1 sequence (whole entry): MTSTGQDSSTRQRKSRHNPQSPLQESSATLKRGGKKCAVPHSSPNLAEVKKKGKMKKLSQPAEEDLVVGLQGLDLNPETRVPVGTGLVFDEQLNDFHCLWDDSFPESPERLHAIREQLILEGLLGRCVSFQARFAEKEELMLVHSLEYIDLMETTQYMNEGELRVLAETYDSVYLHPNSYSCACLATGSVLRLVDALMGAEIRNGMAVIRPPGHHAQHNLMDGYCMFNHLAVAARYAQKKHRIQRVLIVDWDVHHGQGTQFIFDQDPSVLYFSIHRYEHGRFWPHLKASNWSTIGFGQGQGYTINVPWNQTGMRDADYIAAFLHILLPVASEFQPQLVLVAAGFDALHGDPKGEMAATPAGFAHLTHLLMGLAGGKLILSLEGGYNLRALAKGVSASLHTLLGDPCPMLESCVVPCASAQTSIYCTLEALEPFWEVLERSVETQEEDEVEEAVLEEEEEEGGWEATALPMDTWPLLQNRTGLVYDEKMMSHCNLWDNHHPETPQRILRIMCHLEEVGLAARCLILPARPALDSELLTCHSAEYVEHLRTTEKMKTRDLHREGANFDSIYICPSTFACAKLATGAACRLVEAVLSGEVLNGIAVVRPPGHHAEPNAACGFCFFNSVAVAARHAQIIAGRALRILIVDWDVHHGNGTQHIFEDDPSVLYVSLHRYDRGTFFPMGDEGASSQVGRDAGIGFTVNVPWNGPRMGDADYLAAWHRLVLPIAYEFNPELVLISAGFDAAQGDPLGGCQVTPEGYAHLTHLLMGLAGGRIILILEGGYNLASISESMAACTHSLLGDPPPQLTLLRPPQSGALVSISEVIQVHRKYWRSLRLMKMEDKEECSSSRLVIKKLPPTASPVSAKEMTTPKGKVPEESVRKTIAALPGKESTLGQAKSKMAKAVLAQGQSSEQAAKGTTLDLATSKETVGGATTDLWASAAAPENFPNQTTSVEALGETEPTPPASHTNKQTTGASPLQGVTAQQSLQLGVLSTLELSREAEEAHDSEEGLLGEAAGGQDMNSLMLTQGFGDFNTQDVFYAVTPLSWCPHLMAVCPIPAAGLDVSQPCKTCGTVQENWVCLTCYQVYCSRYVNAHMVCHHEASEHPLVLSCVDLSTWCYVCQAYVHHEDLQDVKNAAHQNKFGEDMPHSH

Mus musculus = test: In vivo inhibition of class 1 HDACs in BALB/c nude mouse assessed as upregulation of tumor acetylated H3 level at 5 mg/kg, ip administered every 2 days for 26 days by Western blotting analysis; type: functional, organism-based; details: time 26.0 day
HCT-116 [5] = test: Antitumor activity against human HCT-116 cells xenografted with BALB/c nude mouse assessed as tumor growth inhibition at 5 mg/kg, ip administered every 2 days for 26 days; type: functional; details: HCT-116, 624 h, time 26 day, read-out: TGI
HCT-116 [6] = test: Induction of apoptosis in human HCT-116 cells assessed as early apoptotic cells at 0.4 uM incubated for 24 hrs by Annexin V-FITC/PI staining based flow cytometry analysis ( Rvb = 2.36%); type: functional

SMILES	Activity (HCT-116 [1]) [%]	Activity (HCT-116 [2]) [%]	IC50 (Histone deacetylase 1) [nM]	viability at 0.2 µM (HCT-116 [3]) [%]	inhibition [4]	inhibition (Mus musculus)	inhibition in vivo at 5 mg/kg (HCT-116 [5]) [%]	Activity (HCT-116 [6]) [%]
O=C(NCC[Se][Se]CCNC(=O)/C(Cc1ccc(O)c(Br)c1)=N/O)/C(Cc1ccc(O)c(Br)c1)=N/O	0.082	0.32	170	40.7	Active	Active	74.6	67
O=C(NCC[Se][Se]CCNC(=O)/C(Cc1ccsc1)=N/O)/C(Cc1ccsc1)=N/O	0.057	0.18	770	34.5	Active	Active	24	73.3
